The test system of series [1] is Total cholesterol in serum (hypercholesterolemic mice). As to the kind of experiment: Blood cholesterol lowering activity (total serum cholesterol in mice given a lipid emulsion). Type of series: in vivo, dd-Male mice. To be noted: for Serum cholesterol value: p.o., 17 hours after second administration. The procedure:
dd-Male mice weighing about 25 g (one group: 10 mice) were allowed to fast for 12 hours, and thereto was orally administered a lipid emulsion (olive oil 32.7%, cholesterol 2.5%, sodium cholate 1.8%, sucrose 41.9%, and water 21.1%) in a dose of 25.5 ml/kg. A suspension of a test compound in gum arabic was orally administered to the mice twice, i.e. immediately after and […] after the administration of the lipid emulsion. 17 hours after the second administration of test compound, blood was collected from descending abdominal aorta under ether anesthesia. Total cholesterol in serum was measured by COD-p-chlorophenol colorimetry. As a reference compound, there was used Nicomol (chemical name: 2,2,6,6-tetrakis(nicotinoyloxymethyl)cyclohexanol) which is commercially available anticholesteremic agent.
Serum cholesterol values at 17 hours after the second administration of test compound were compared with the serum cholesterol values in normal mice and hypercholesterolemic mice.

Series [2] deals with blood cholesterol concentration. As to conditions: known agents, background; cited from earlier work.
The nature of the next series: Acute toxicity (LD50). To be noted: mouse, in vivo; mice, oral administration. The procedure: The compounds of this invention show a low toxicity. For instance, Compound 1 and Compound 2 have LD50 of more than 5,000 mg/kg in mice (by oral administration).
The subject of series [3] is ornithine carbamyl transferase (OCT) in serum, ethanol-administered mice. The experiment in a line: Activity against alcoholic hepatic disease (serum OCT activity). In kind it is in vivo, dd-Male mice. The procedure: dd-Male mice (4 weeks age, weighing about 15 g, one group: 10 mice) were fed with a hyperlipid feed [composition: cholesterol 1.0%, sodium cholate 0.5%, butter 5.0%, sucrose 30.0%, casein 10.0%, and M powder feed (manufactured by Oriental Yeast Co., Ltd., Japan) 53.5%] for 4 weeks. During the feeding, a suspension of a test compound in gum arabic and a 20% aqueous ethanol (15 ml/kg) were orally administered twice a day (morning and evening). After 4 weeks, mice were subjected to laparotomy under ether anesthesia, and blood was collected from the descending abdominal aorta. The blood thus collected was centrifuged at 3,000 r.p.m. for 15 minutes, and the enzymatic activity of ornithine carbamyl transferase (OCT) was measured with OCT-Test Wako (manufactured by Wako Pure Chemical Industries, Ltd., Japan).
The OCT activity in serum of mice which were administered test compounds was compared with the OCT activity in serum of normal mice and in control mice which were administered only 20% aqueous ethanol.

For series [4], the system named is glutamic pyruvic transaminase (GPT) in serum, CCl4-administered mice. The experiment in a line: Activity against carbon tetrachloride-induced hepatic disease (serum GPT). In kind it is in vivo, dd male mice. The protocol: (§1) To dd male mice weighing 18-20 g (one group: 10 mice) was orally administered a suspension of a test compound in gum arabic twice or three times per day. On the third day, 1% carbon tetrachloride (v/v % in olive oil) was subcutaneously injected at the back of the mice in a dose of 2 ml/kg one hour after the last administration of test compound. 19 hours after the injection of CCl4, a suspendion of a test compound in gum arabic was orally administerd. After one hour, the mice were subjected to laparotomy under ether anesthesia and blood was collected from the descending abdominal aorta. The blood thus collected was centrifuged at 3,000 r.p.m. for 15 minutes. The enzymatic activities of glutamic oxaloacetic transaminase (GOT) and glutamic pyruvic transaminase (GPT) in serum were measured with S.TA-Test Wako (manufactured by Wako Pure Chemical Industries, Ltd., Japan).
(§2) The activities of GOT and GPT in serum of the mice which were administered test compounds were compared with the GOT and GPT activities in serum of normal mice and 1% CCl4 (v/v % in olive oil)-administered mice.

In series [5] the test system is glutamic oxaloacetic transaminase (GOT) in serum, CCl4-administered mice. The experiment in a line: Activity against carbon tetrachloride-induced hepatic disease (serum GOT). In kind it is in vivo, dd male mice. The procedure: as §1, §2

`Cc1c(C)c2c(c(C)c1OC(=O)c1cccnc1)CCC(C)(CC(COC(=O)c1cccnc1)OC(=O)c1cccnc1)O2` (centres unmarked) [Compound 7] registered a Serum cholesterol value in series [1] (Table 3, 571 mg/kg, normal 109.1 ± 9.3, hypercholesterolemic 164.0 ± 12.8) of 143.6 ± 10.8 mg/dL.

With `O=C(OCC(COC(=O)c1cccnc1)(COC(=O)c1cccnc1)COC(=O)c1cccnc1)c1cccnc1` [pentaerythritol tetranicotinate], the “blood cholesterol concentration lowering” value in series [2] is recorded as “not necessarily sufficient for lowering blood cholesterol”.

In series [1] (Table 1, 341 mg/kg, normal 98.6 ± 10.8, hypercholesterolemic 172.2 ± 8.6), `Cc1c(C)c2c(c(C)c1O)CCC(C)(COC(=O)c1cccnc1)O2` (centres unmarked) [Compound 4] came in with a Serum cholesterol value of 159.4 ± 13.4 mg/dL.

In series [1] (Table 1, 355 mg/kg, normal 98.6 ± 10.8, hypercholesterolemic 172.2 ± 8.6), `Cc1c(C)c2c(c(C)c1O)CCC(C)(CCOC(=O)c1cccnc1)O2` (centres unmarked) [Compound 1, 3,4-dihydro-2-nicotinoyloxyethyl-2,5,7,8-tetramethyl-2H-benzopyran-6-ol] gave a Serum cholesterol value of 130.7 ± 11.3 mg/dL. The LD50 in the series “Acute toxicity (LD50)” was over 5000 mg/kg.

Take `O=C(OCC1(COC(=O)c2cccnc2)CCCC(COC(=O)c2cccnc2)(COC(=O)c2cccnc2)C1O)c1cccnc1` [Nicomol, 2,2,6,6-tetrakis(nicotinoyloxymethyl)cyclohexanol, reference compound]: the Serum cholesterol value in series [1] (Table 1, 640 mg/kg, normal 98.6 ± 10.8, hypercholesterolemic 172.2 ± 8.6) is 146.1 ± 14.7 mg/dL; in series [1] (Table 2, 640 mg/kg, normal 101.0 ± 5.8, hypercholesterolemic 194.3 ± 9.5), 139.4 ± 4.4 mg/dL; in series [1] (Table 3, 640 mg/kg, normal 109.1 ± 9.3, hypercholesterolemic 164.0 ± 12.8) it was 138.3 ± 12.5 mg/dL; in series [1] (Table 4, 640 mg/kg, normal 111.3 ± 8.6, hypercholesterolemic 165.0 ± 13.4), 142.7 ± 11.5 mg/dL. Also, the “blood cholesterol concentration lowering” value in series [2] is “not necessarily sufficient for lowering blood cholesterol”.

On to `O=C(O)c1cccnc1` [nicotinic acid], for which, in series [2], the “blood cholesterol concentration lowering” value was “temporarily lowered, but the lowered concentration is not sustained”.

With `Cc1c(C)c2c(c(C)c1OC(=O)c1cccnc1)CCC(C)(CCO)O2` (centres unmarked) [Compound 3], in series [1] (Table 4, 355 mg/kg, normal 111.3 ± 8.6, hypercholesterolemic 165.0 ± 13.4), the Serum cholesterol value was determined as 144.0 ± 10.5 mg/dL.

For the compound `Cc1c(C)c2c(c(C)c1OC(=O)c1cccnc1)CCC(C)(COC(=O)c1cccnc1)O2` (centres unmarked) [Compound 5, 3,4-dihydro-2-nicotinoyloxymethyl-2,5,7,8-tetramethyl-2H-benzopyran-6-yl nicotinate], in series [1] (Table 1, 452 mg/kg, normal 98.6 ± 10.8, hypercholesterolemic 172.2 ± 8.6), the Serum cholesterol value is 127.9 ± 14.2 mg/dL. The “cholesterol lowering activity compared with Nicomol” value in series [1] (relative to Nicomol) was “about two times higher cholesterol lowering activity than Nicomol”. The “inhibition of increase of OCT activity induced by alcohol” value in series [3] (in words) is recorded as “excellent inhibition of increase of OCT activity induced by alcohol in a similar degree to that of Compound 2”. Further, the “inhibition of increase of GPT activity induced by CCl4” value in series [4] (in words) is “excellent inhibition of increase of GOT and GPT activities induced by CCl4 in a similar degree to that of Compound 2”. Also, in series [5] (in words), the “inhibition of increase of GOT activity induced by CCl4” value was “excellent inhibition of increase of GOT and GPT activities induced by CCl4 in a similar degree to that of Compound 2”.

With `Cc1c(C)c2c(c(C)c1OC(=O)c1cccnc1)CCC(C)(CCCOC(=O)c1cccnc1)O2` (centres unmarked) [Compound 6, 3,4-dihydro-2-nicotinoyloxypropyl-2,5,7,8-tetramethyl-2H-benzopyran-6-yl nicotinate], in series [1] (Table 1, 474 mg/kg, normal 98.6 ± 10.8, hypercholesterolemic 172.2 ± 8.6), the Serum cholesterol value is 123.8 ± 13.8 mg/dL.

On to `Cc1c(C)c2c(c(C)c1OC(=O)c1cccnc1)CCC(C)(CCOC(=O)c1cccnc1)O2` (centres unmarked) [Compound 2, 3,4-dihydro-2-nicotinoyloxyethyl-2,5,7,8-tetramethyl-2H-benzopyran-6-yl nicotinate], for which the Serum cholesterol value in series [1] (Table 2, 300 mg/kg, normal 101.0 ± 5.8, hypercholesterolemic 194.3 ± 9.5) worked out at 139.6 ± 9.3 mg/dL. The “OCT activity unit (mean ± S.E.)” value in series [3] (Table 5, 300 mg/kg, p.o., twice a day, 4 weeks, normal 5.1 ± 3.2, ethanol-administered 122.5 ± 17.0) is 79.6 ± 12.2 unit. Moreover, the “GPT activity (average)” value in series [4] (Table 6, 300 mg/kg, p.o., normal 74.0 ± 16.3, CCl4-administered 1251.4 ± 285.4) worked out at 765.7 ± 84.4. The compound also had an LD50 in the series “Acute toxicity (LD50)” of over 5000 mg/kg. Moreover, in series [5] (Table 6, 300 mg/kg, p.o., normal 87.9 ± 5.3, CCl4-administered 914.3 ± 195.1), the “GOT activity (average)” value was determined as 582.9 ± 59.8.

(Values after patent US4681890A, “3,4-dihydrobenzopyran compounds and pharmaceutical composition containing the same” (Kuraray Co., Ltd., priority 1984, dated 1987).)
